Reference: patent US5081232A, “Complexes of TC99m radiopharmaceuticals” (priority 1987, dated 1992)

Assay: Animal biodistribution (in vivo, i.v. injection)
Settings: rats; for Blood, % injected dose/organ: blood taken as 5.8% of body weight; for Muscle, % injected dose/organ: muscle taken as 43% of body weight
Method: 0.1 ml Tc^99m prep was injected i.v. into a lateral tail vein of 6 anaesthetised rats.
At 2 minutes and 60 minutes post injection, 3 rats were sacrificed by decapitation, bled from the neck and dissected. The following organs were removed at dissection: kidney, bladder(+urine), lung, liver, spleen, stomach, small intestine, large intestine, brain (weighed), heart (weighed), thyroid, and samples of blood (weighed) and muscle (weighed, the residual carcass and the tail (injection site). Subsequently samples were counted in an automatic twin crystal gamma counter.
Percentage biodistribution of injected material was calculated (after correction for background) for all organs using the formula: [formula]
Since only samples of muscle and blood were taken, the percentage in these tissues was calculated assuming blood and muscle to represent 5.8 and 43% of total animal weight respectively using the formula: [formula] where CF= 0.058 for blood

SMILES	Brain, % injected dose/organ (2 min p.i.) [% injected dose/organ]	Heart, % injected dose/organ (2 min p.i.) [% injected dose/organ]	Heart/Blood Counts/Gram ratio (2 min p.i.)	Heart/Liver Counts/Gram ratio (2 min p.i.)	Heart/Lung Counts/Gram ratio (2 min p.i.)	Heart/Muscle Counts/Gram ratio (2 min p.i.)	Kidney + Urine, % injected dose/organ (2 min p.i.) [% injected dose/organ]	Liver, % injected dose/organ (2 min p.i.) [% injected dose/organ]	Lung, % injected dose/organ (2 min p.i.) [% injected dose/organ]	Blood, % injected dose/organ (2 min p.i.) [% injected dose/organ]	Muscle, % injected dose/organ (2 min p.i.) [% injected dose/organ]	Brain, % injected dose/organ (60 min p.i.) [% injected dose/organ]	Heart, % injected dose/organ (60 min p.i.) [% injected dose/organ]	Heart/Blood Counts/Gram ratio (60 min p.i.)	Heart/Liver Counts/Gram ratio (60 min p.i.)	Heart/Lung Counts/Gram ratio (60 min p.i.)	Heart/Muscle Counts/Gram ratio (60 min p.i.)	Kidney + Urine, % injected dose/organ (60 min p.i.) [% injected dose/organ]	Liver, % injected dose/organ (60 min p.i.) [% injected dose/organ]	Lung, % injected dose/organ (60 min p.i.) [% injected dose/organ]	further results
CP(C)CCP(C)C.CP(C)CCP(C)C.N#[O+].[99Tc+].[Cl-].[Cl-]	0.04	0.46	0.68	0.38	0.71	1.85	10.18	15.03	1.09	9.96	27.00	0.01	0.30	4.48	1.13	1.53	2.34	42.60	3.14	0.33	Liver + GI, % injected dose/organ (2 min p.i.): 26.33 % injected dose/organ; Liver + GI, % injected dose/organ (60 min p.i.): 34.70 % injected dose/organ; Blood, % injected dose/organ (60 min p.i.): 1.02 % injected dose/organ; Muscle, % injected dose/organ (60 min p.i.): 14.10 % injected dose/organ
O=[N][99Tc]1([Cl])([Cl])([Cl])[N]2C=CC=c3ccc4c(c32)[N]1C=CC=4 [[^99 Tc(NO)(1,10 phen)Cl3]°]	0.08	0.40	1.59	35.14	1.55	1.99	1.97	0.16	0.67	3.98	22.83	0.04	0.29	1.36	10.63	2.57	4.68	16.05	0.46	0.23	Blood, % injected dose/organ (60 min p.i.): 3.49 % injected dose/organ; Muscle, % injected dose/organ (60 min p.i.): 17.02 % injected dose/organ
O=[N][99Tc]([Cl])([Cl])[Cl].c1ccc(-c2ccccn2)nc1 [[^99 Tc(NO)Cl3 (Bipy)], bipyridyltrichloronitrosyltechnetium (11)]	0.06	0.32	0.99	1.31	1.30	1.69	11.30	3.43	0.45	7.17	24.17	0.04	0.30	2.12	1.09	4.13	2.02	22.96	3.35	0.10	Liver + GI, % injected dose/organ (2 min p.i.): 0.00 % injected dose/organ; Liver + GI, % injected dose/organ (60 min p.i.): 0.00 % injected dose/organ; Blood, % injected dose/organ (60 min p.i.): 2.02 % injected dose/organ; Muscle, % injected dose/organ (60 min p.i.): 18.95 % injected dose/organ
